Experimental data as given in publication PMC2916031 (Journal of molecular biology, 2010).

Legend:
[1] = biological target: full-length TbMEAT1 (Trypanosoma brucei, UniProt C7AJA4); assay: U-addition to […]'-labelled RNA, denaturing gel; assay type: biochemical; settings: 100 µM UTP, 300 nM enzyme, 1 µM RNA, Mg acetate, pH 8.0, 27 °C
[2] = biological target: C-terminally truncated MEAT1 (Trypanosoma brucei, UniProt C7AJA4); assay: U-addition to […]'-labelled RNA, denaturing gel; assay type: biochemical; settings: 100 µM UTP, 300 nM enzyme, 1 µM RNA, Mg acetate, pH 8.0, 27 °C
Sequence of C-terminally truncated MEAT1 (C7AJA4 1-381): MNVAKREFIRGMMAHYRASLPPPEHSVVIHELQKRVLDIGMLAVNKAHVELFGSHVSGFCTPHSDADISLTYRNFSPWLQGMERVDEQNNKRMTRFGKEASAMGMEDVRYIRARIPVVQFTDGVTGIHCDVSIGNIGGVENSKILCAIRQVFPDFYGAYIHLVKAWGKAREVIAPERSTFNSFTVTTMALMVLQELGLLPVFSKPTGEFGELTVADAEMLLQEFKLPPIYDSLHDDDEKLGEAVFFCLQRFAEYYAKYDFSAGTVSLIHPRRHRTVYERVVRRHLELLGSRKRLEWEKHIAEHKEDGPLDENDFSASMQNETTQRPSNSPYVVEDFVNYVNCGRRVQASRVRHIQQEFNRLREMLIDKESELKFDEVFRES

Sequence of full-length TbMEAT1 (C7AJA4 whole entry, the tested form may be a part): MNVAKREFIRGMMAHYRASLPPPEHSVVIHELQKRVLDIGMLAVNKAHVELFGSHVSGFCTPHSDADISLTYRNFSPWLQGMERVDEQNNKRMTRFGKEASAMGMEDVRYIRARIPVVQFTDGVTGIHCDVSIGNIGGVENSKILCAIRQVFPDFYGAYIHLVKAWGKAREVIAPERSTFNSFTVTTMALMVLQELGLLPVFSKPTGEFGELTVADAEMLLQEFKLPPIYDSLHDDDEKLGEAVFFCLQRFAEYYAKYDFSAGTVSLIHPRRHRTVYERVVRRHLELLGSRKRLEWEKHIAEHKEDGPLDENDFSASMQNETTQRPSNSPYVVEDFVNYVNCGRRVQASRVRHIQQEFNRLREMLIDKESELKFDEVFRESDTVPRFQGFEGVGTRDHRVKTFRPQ

SMILES: O=c1ccn([C@@H]2O[C@H](COP(=O)(O)OP(=O)(O)OP(=O)(O)O)[C@@H](O)[C@H]2O)c(=O)[nH]1 [UTP]
- U-addition to 5'-labelled RNA, denaturing gel [1]: U-addition patterns for full-length TbMEAT1
- U-addition to 5'-labelled RNA, denaturing gel [2]: neither limited proteolysis nor genetically-engineered C-terminal deletion had any discernable effects on enzymatic activity
